# In patent US20180177778A1, “Methods for Treating HCV” (priority 2015, published 2018):
# Experiments:
# [1] = Population pharmacokinetics in HCV GT1 subjects with CKD Stage 4 or 5 (Example 17); type: in vivo, human; settings: vs subjects without kidney disease
# Description: Pharmacokinetic data from a Phase 2 study (N=38) in subjects with normal or mild renal impairment (subjects “without kidney disease”) were combined with preliminary data from a Phase 3b study in subjects with CKD Stage 4 (N=5) or Stage 5 on hemodialysis (N=14). In both studies subjects received OBV/PTV/r 25/150/100 mg QD and DSV 250 mg BID±RBV for 12 weeks. Pharmacokinetic parameters and steady-state exposures of the 3-DAA regimen were estimated using population pharmacokinetic models.
# [2] = Effect of food on bioavailability of co-formulated tablets, healthy Japanese subjects (Example 20); type: in vivo, human; settings: for Tmax: both sexes, mean Tmax
# Text: Japanese male and female volunteers 20 to 55 years of age in general good health with a body mass index ≥18.5 and <25 kg/m^2 were eligible to enroll. Subjects who had positive test results for hepatitis A, B, or C, or for HIV infection, and subjects who were using known inhibitors or inducers of CYP3A isozyme or organic anion transporting polypeptide 1B1 (OATP1B1) inhibitors were excluded from participation. Subjects were not to have consumed alcohol, grapefruit, star fruit, or Seville oranges within 72 hours, or to have used nicotine-containing products within 6 months before study drug administration.
# This was a 2-sequence 2-period crossover study. A single dose of two ombitasvir/paritaprevir/ritonavir 12.5/75/50 mg coformulated tablets (total dose of 25/150/100 mg) was administered in the morning on Study Day 1 of each period as follows:
# PK parameters for ombitasvir, paritaprevir, and ritonavir were estimated by noncompartmental methods using Phoenix WinNonlin, version 6.3 (Pharsight, A Certara® Company, St. Louis, Mo.) including maximum plasma concentration (Cmax), time to Cmax (Tmax), area under the plasma concentration-time curve (AUC), and terminal-phase elimination half-life (t1/2). The effect of food on the bioavailability of ombitasvir, paritaprevir, and ritonavir was assessed using a repeated measures analysis of natural logarithms of Cmax and AUC values. Point estimates of central value ratios and their 90% confidence intervals (CIs) for Cmax and AUC were calculated to quantify the magnitude of food effect. Statistical analyses were conducted using SAS, version 9.2 (SAS Institute, Inc., Cary, N.C.).
# [3] = human, in vivo
# Description: All subjects received ombitasvir/paritaprevir/ritonavir 25/150/100 mg QD and dasabuvir 250 mg BID±weight based RBV. DAAs (OBV, PTV, or DSV) and RTV AUC values were available from 2093 subjects and RBV AUC values were available from 1584 subjects. The dataset included subjects with normal renal function (NF) (CrCl ≥90 mL/min, n=1495), mild renal impairment (RI) (CrCL 60-89 mL/min, n=576) and moderate RI (CrCL 30-59 mL/min, n=22). […] CrCL was retained in the models, regardless of its statistical significance, to determine the effect, if any, on the AUC values.
# [4] = in vivo; cited from earlier work
Compound,exposures higher in CKD Stage 4 subjects [1],exposures lower in CKD Stage 5 [1],"Tmax ([2]; human, in vivo) [h]","increase of mean AUC ([2]; both, human, in vivo) [%]","mean Tmax ([2]; both, human, in vivo) [h]",further results
"CC(C)c1nc(CN(C)C(=O)N[C@H](C(=O)N[C@@H](Cc2ccccc2)C[C@H](O)[C@H](Cc2ccccc2)NC(=O)OCc2cncs2)C(C)C)cs1 [ritonavir, reference compound]",~200%,about 33%,3.4,34,4.9,
"COc1c(-c2ccc3cc(NS(C)(=O)=O)ccc3c2)cc(-n2ccc(=O)[nH]c2=O)cc1C(C)(C)C [Compound 3, N-(6-(3-tert-butyl-5-(2,4-dioxo-3,4-dihydropyrimidin-1(2H)-yl)-2-methoxyphenyl)naphthalen-2-yl)methanesulfonamide]",,~37%,,,,
"dimethyl (2S,2′S)-1,1′-((2S,2′S)-2,2′-(4,4′-((2S,5S)-1-(4-tert-butylphenyl)pyrrolidine-2,5,diyl)bis(4,1-phenylene))bis(azanediyl)bis(oxomethylene)bis(pyrrolidine-2,1-diyl)bis(3-methyl-1-oxobutane-2,1-diyl)dicarbamate [Compound 2]",about 80%,,,,,"mean Tmax ([2]; fasting conditions, single dose 25/150/100 mg): 4.4 h; increase of mean AUC ([2]; high fat meal relative to fasting, Japanese subjects): 73%; mean Tmax ([2]; with a high fat meal, single dose 25/150/100 mg): 5.3 h"
"Cc1cnc(C(=O)N[C@H]2CCCCC/C=C\[C@@H]3C[C@@]3(C(=O)NS(=O)(=O)C3CC3)NC(=O)[C@@H]3C[C@@H](Oc4nc5ccccc5c5ccccc45)CN3C2=O)cn1 [Compound 1, (2R,6S,13aS,14aR,16aS,Z)—N-(cyclopropylsulfonyl)-6-(5-methylpyrazine-2-carboxamido)-5,16-dioxo-2-(phenanthridin-6-yloxy)-1,2,3,5,6,7,8,9,10,11,13a,14,14a,15,16,16a-hexadecahydrocyclopropa[e]pyrrolo[1,2-a][1,4]diazacyclopentadecine-14a-carboxamide]",,,4.2,228,5.2,
"NC(=O)c1ncn([C@@H]2O[C@H](CO)[C@@H](O)[C@H]2O)n1 [Ribavirin, ribavirin]",,,,,,AUC values higher in mild/moderate RI compared to NF [3]: up to 17%; absolute bioavailability [4]: approximately 50%
